Test [1] concerns the target EGFR L858R/C797S (Homo sapiens, UniProt P00533, C797S/L858R). The test can be described thus: Biochemical EGFR kinase assay (Lance Ultra TR-FRET), double mutant L858R/C797S. In outline:
(§1)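 Step 1: compound in kinase buffer, 0.003–10 μM. Step 2: kinase reaction 1 h at room temperature. Step 4: TR-FRET read at 615/665 nm; IC50 calculated.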
(In general: Time-resolved FRET reads energy transfer from a long-lived donor to a nearby acceptor.)

Test [2] deals with EGFR L858R/T790M/C797S (Homo sapiens, UniProt P00533, C797S/L858R/T790M). The experiment in a line: Biochemical EGFR kinase assay (Lance Ultra TR-FRET), triple mutant L858R/T790M/C797S. Put shortly: as §1
In test [3] the target is EGFR del19/T790M/C797S (Homo sapiens, UniProt P00533, C797S/DEL746-750/T790M). The test can be described thus: Biochemical EGFR kinase assay (Lance Ultra TR-FRET), triple mutant del19/T790M/C797S. Put shortly: as §1
The target of test [4] is EGFR del19/C797S (Homo sapiens, UniProt P00533, C797S/DEL746-750). The test can be described thus: Biochemical EGFR kinase assay (Lance Ultra TR-FRET), double mutant del19/C797S. In outline: as §1
Test [5] deals with EGFR wildtype (Homo sapiens, UniProt P00533). The experiment in a line: Biochemical EGFR kinase assay (Lance Ultra TR-FRET), wildtype. Put shortly: as §1
[6] abbreviates: IC50 L858R/C797S (nM) 100 μM ATP, 100 μM ATP.
Where [7] appears, read: Km ATP, read-out: IC50 L858R/C797S (nM) Km ATP.
Setting [8] is: IC50 L858R/T790M/C797S (nM) 100 μM ATP, 100 μM ATP.
The mark [9] stands for this setting: IC50 del19/T790M/C797S (nM) 100 μM ATP, 100 μM ATP.
The mark [10] stands for this setting: Km ATP, read-out: IC50 del19/T790M/C797S (nM) Km ATP.
The mark [11] stands for this setting: IC50 del19/C797S (nM) 100 μM ATP, 100 μM ATP.
Setting [12] is: Km ATP, read-out: IC50 del19/C797S (nM) Km ATP.
The mark [13] stands for this setting: IC50 WT (nM) 100 μM ATP, 100 μM ATP.
[14] abbreviates: Km ATP, read-out: IC50 WT (nM) Km ATP.
[15] abbreviates: Km ATP, read-out: IC50 L858R/T790M/C797S (nM) Km ATP.
[16] abbreviates: ATP at Km, read-out: IC50 L858R/C797S, Km ATP.
Where [17] appears, read: ATP at Km, read-out: IC50 L858R/T790M/C797S, Km ATP.
Setting [18] is: ATP at Km, read-out: IC50 del19/T790M/C797S, Km ATP.
The mark [19] stands for this setting: ATP at Km, read-out: IC50 del19/C797S, Km ATP.
[20] abbreviates: ATP at Km, read-out: IC50 WT, Km ATP.
[21] abbreviates: IC50 L858R/T790M/C797S, 100 μM ATP.
Setting [22] is: IC50 del19/T790M/C797S, 100 μM ATP.

Structures are written as SMILES. Read-outs that look alike come from different tables or passages of the source.

Chain of EGFR L858R/C797S (P00533 25-1210 C797S/L858R): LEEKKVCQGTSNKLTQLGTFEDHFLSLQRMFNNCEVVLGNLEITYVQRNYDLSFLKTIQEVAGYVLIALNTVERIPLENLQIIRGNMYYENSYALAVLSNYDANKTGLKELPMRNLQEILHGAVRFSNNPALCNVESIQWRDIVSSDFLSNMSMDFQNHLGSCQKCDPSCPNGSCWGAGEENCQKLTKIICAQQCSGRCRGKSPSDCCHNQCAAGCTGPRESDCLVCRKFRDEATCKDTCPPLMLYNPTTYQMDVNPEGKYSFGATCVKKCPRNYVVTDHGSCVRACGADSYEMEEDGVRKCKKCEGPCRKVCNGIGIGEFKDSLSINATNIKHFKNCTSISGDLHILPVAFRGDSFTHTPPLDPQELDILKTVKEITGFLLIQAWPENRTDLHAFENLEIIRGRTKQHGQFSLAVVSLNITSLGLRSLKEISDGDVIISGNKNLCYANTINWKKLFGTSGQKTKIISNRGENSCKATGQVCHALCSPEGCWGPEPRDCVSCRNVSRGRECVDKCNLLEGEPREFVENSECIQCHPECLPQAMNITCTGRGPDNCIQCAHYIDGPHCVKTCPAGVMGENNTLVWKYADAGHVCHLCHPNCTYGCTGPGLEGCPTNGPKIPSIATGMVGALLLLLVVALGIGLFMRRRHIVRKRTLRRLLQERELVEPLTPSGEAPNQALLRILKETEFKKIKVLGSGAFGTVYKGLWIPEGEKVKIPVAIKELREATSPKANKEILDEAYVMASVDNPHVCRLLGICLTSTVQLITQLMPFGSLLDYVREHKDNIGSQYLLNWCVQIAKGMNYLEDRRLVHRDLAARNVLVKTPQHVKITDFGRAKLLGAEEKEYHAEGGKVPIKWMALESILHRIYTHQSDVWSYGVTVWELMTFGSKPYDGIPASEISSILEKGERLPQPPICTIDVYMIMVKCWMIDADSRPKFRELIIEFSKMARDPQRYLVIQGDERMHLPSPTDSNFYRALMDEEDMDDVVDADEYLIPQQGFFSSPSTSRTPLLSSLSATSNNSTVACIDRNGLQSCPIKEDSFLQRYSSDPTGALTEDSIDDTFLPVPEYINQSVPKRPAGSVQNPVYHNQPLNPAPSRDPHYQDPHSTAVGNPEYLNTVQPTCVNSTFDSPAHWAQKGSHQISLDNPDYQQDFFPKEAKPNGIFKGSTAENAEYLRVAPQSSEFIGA
Chain of EGFR wildtype (P00533 25-1210): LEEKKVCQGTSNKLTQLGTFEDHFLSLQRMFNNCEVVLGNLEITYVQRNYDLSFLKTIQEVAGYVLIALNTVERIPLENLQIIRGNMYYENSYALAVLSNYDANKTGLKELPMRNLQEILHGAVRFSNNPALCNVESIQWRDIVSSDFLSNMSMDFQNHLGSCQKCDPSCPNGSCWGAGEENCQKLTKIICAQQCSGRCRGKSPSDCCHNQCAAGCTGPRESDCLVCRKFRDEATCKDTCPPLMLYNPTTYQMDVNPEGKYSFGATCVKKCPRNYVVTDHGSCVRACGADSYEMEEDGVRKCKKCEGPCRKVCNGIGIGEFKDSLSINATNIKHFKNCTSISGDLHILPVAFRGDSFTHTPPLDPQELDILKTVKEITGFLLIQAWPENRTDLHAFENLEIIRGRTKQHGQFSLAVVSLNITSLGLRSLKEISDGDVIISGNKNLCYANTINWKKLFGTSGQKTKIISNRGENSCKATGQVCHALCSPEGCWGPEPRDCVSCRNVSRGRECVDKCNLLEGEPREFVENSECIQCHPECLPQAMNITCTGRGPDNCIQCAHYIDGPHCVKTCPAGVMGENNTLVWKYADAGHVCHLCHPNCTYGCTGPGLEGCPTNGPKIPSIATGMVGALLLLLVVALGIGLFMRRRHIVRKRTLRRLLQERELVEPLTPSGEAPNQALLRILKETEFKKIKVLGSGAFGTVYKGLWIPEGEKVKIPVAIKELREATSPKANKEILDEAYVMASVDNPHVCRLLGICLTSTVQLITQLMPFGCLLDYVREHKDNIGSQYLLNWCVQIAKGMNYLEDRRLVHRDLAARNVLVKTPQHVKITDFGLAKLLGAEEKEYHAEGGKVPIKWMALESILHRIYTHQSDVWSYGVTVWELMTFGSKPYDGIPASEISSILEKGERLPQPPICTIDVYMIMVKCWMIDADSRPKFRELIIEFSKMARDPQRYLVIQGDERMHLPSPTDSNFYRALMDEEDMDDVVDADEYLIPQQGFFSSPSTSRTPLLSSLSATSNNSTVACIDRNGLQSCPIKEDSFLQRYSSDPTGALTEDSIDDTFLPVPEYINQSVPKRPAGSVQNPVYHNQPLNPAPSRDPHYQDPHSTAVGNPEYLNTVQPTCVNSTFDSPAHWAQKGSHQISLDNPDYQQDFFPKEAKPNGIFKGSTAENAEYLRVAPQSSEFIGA
Chain of EGFR del19/T790M/C797S (P00533 with tags, fused parts or gaps DEL746-750/T790M/C797S): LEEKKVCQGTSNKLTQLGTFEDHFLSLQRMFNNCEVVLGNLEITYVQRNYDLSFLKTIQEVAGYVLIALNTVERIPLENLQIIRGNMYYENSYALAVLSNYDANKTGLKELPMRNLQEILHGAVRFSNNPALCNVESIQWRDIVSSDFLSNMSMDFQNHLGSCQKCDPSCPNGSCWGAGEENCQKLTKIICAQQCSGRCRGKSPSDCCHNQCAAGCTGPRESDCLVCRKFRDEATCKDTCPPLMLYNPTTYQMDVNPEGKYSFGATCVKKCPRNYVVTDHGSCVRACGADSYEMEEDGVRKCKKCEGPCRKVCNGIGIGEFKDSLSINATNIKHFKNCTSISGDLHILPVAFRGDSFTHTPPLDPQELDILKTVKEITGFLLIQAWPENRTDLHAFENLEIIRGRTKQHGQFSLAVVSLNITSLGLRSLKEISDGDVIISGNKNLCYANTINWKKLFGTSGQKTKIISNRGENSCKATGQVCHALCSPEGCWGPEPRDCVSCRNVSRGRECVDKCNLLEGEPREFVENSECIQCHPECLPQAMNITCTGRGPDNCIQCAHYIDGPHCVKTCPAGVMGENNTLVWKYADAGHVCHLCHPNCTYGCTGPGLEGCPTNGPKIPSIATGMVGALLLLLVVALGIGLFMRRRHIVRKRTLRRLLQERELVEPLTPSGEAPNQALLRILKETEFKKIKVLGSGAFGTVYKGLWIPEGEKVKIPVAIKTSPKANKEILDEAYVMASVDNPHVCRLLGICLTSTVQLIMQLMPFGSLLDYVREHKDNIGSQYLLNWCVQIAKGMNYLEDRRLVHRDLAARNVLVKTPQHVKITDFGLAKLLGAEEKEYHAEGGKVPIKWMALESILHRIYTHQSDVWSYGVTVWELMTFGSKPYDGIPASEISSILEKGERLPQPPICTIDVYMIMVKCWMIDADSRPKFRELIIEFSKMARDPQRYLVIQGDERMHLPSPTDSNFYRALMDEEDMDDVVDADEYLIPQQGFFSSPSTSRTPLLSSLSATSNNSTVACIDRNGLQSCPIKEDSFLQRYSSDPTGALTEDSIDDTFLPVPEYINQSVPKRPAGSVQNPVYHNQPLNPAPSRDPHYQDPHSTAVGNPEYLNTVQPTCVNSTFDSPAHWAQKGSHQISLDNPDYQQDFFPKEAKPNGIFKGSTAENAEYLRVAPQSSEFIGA
Chain of EGFR L858R/T790M/C797S (P00533 25-1210 T790M/C797S/L858R): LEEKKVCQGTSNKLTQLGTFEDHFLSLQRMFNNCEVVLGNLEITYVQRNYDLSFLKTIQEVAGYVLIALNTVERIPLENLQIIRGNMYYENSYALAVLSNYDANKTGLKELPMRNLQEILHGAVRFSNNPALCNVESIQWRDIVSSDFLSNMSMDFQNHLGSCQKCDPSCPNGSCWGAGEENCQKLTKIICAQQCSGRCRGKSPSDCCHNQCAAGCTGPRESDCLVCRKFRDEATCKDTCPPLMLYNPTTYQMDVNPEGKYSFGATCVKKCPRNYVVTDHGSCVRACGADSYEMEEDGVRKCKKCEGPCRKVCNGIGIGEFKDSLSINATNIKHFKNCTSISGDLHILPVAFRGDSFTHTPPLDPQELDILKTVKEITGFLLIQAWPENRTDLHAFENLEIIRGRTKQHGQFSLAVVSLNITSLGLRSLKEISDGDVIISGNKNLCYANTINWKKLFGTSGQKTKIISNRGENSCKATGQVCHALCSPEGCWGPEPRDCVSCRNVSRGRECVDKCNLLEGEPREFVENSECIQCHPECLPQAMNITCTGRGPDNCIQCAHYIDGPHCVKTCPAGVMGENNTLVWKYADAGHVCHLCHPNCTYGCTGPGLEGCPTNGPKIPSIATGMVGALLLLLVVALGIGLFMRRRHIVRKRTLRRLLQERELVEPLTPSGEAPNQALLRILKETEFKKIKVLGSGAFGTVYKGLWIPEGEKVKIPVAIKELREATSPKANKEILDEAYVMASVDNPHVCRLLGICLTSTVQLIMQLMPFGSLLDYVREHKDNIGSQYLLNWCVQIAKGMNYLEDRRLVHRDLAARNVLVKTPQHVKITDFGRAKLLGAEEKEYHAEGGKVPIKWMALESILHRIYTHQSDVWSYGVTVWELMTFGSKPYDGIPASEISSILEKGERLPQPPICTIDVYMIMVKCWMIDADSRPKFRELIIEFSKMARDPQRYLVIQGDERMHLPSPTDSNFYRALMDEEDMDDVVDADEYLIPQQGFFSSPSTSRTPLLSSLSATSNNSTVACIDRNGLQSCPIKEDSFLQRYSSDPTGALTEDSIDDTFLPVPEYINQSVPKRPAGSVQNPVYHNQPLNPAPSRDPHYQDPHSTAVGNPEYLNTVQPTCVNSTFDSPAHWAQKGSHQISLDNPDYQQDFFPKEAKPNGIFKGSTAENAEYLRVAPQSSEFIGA

With `CC(C)(O)c1cc(-c2cnc(Nc3ccnc(-c4cnn(S(=O)(=O)C5CC5)c4)n3)cc2N[C@H]2CC[C@@H](CO)CC2)ncc1F` [Example 105, 2-(6′-((2-(1-(Cyclopropylsulfonyl)-1H-pyrazol-4-yl)pyrimidin-4-yl)amino)-5-fluoro-4′-(((1s,4s)-4-(hydroxymethyl)cyclohexyl)amino)-[2,3′-bipyridin]-4-yl)propan-2-ol], the IC50 was found to be 5.4 nM in test [1] (setting [6]); 0.6 nM in test [1] (setting [7]); 1.2 nM in test [2] (setting [8]); 3.2 nM in test [3] (setting [9]); 2.1 nM in test [3] (setting [10]); 3.9 nM in test [4] (setting [11]). Further, the IC50 in test [4] (setting [12]) came to 3 nM; in test [5] (setting [13]) it was 787 nM; in test [5] (setting [14]), 5.3 nM.

With `CN(C)Cc1ccc(-c2cnc(Nc3ccnc(-c4cnn(S(=O)(=O)C5CC5)c4)n3)cc2N[C@H]2CC[C@@](C)(O)CC2)nc1` [Example 31, (1s,4s)-4-((6′-((2-(1-(Cyclopropylsulfonyl)-1H-pyrazol-4-yl)pyrimidin-4-yl)amino)-5-((dimethylamino)methyl)-[2,3′-bipyridin]-4′-yl)amino)-1-methylcyclohexan-1-ol], the IC50 in test [1] (setting [6]) was 0.8 nM; in test [1] (setting [7]), 0.1 nM; in test [2] (setting [8]), 0.1 nM; in test [2] (setting [15]), 0.1 nM; in test [3] (setting [9]), 0.2 nM; in test [3] (setting [10]), 0.2 nM. For the same molecule, the IC50 in test [4] (setting [11]) came out at 0.1 nM; in test [4] (setting [12]) it was 0.1 nM; in test [5] (setting [13]) it was 52.6 nM; in test [5] (setting [14]), 0.3 nM.

In the case of `CN1CCC(Oc2cnc(-c3cnc(Nc4ccnc(-c5cnn(S(=O)(=O)C6CC6)c5)n4)cc3N[C@H]3CC[C@@H](C(C)(C)O)CC3)cn2)CC1` [Example 147, 2-((1s,4s)-4-((2-((2-(1-(Cyclopropylsulfonyl)-1H-pyrazol-4-yl)pyrimidin-4-yl)amino)-5-(5-((1-methylpiperidin-4-yl)oxy)pyrazin-2-yl)pyridin-4-yl)amino)cyclohexyl)propan-2-ol], the IC50 in test [1] (setting [7]) amounted to 0.1 nM; in test [2] (setting [15]), 0.1 nM; in test [3] (setting [10]), 0.3 nM; in test [4] (setting [12]), 0.4 nM; in test [5] (setting [14]) it was 2.3 nM.

As for `CC(C)(O)c1ccc(-c2cnc(Nc3ccnc(-c4cnn(S(=O)(=O)C5CC5)c4)n3)cc2NC2CCC(F)CC2)nc1` (stereo not drawn) [Example 174, 2-(6′-((2-(1-(Cyclopropylsulfonyl)-1H-pyrazol-4-yl)pyrimidin-4-yl)amino)-4′-((4-fluorocyclohexyl)amino)-[2,3′-bipyridin]-5-yl)propan-2-ol], the IC50 worked out at 1.8 nM in test [1] (setting [16]); 1.1 nM in test [2] (setting [17]); 2.5 nM in test [3] (setting [18]); 7.7 nM in test [4] (setting [19]); 23.4 nM in test [5] (setting [20]).

As for `CN1CCN(c2ccnc(-c3cnc(Nc4ccnc(-c5cnn(S(=O)(=O)C6CC6)c5)n4)cc3N[C@H]3CC[C@@](C)(O)CC3)c2)CC1` [Example 58, (1s,4s)-4-((6′-((2-(1-(Cyclopropylsulfonyl)-1H-pyrazol-4-yl)pyrimidin-4-yl)amino)-4-(4-methylpiperazin-1-yl)-[2,3′-bipyridin]-4′-yl)amino)-1-methylcyclohexan-1-ol], the IC50 in test [1] (setting [6]) was determined as 56.4 nM; in test [1] (setting [7]) it was 1.7 nM; in test [2] (setting [8]) it was 1.1 nM; in test [3] (setting [9]), 1.1 nM; in test [4] (setting [11]) it was 7.2 nM; in test [4] (setting [12]) it was 8 nM. The results for the IC50 in test [5] (setting [13]) and in test [5] (setting [14]) were greater than 10000 nM and 97.7 nM, respectively.

In the case of `CC(C)(O)[C@H]1CC[C@@H](Nc2cc(Nc3ccnc(-c4cnn(S(=O)(=O)C5CC5)c4)n3)ncc2-c2cc(OCCN3CCOCC3)ccn2)CC1` [Example 213, 2-((1s,4s)-4-((6′-((2-(1-(Cyclopropylsulfonyl)-1H-pyrazol-4-yl)pyrimidin-4-yl)amino)-4-(2-morpholinoethoxy)-[2,3′-bipyridin]-4′-yl)amino)cyclohexyl)propan-2-ol], the IC50 was found to be 1.4 nM in test [1] (setting [16]); 85.4 nM in test [1] (IC50 L858R/C797S, 100 μM ATP); 0.8 nM in test [2] (setting [17]); 1.3 nM in test [2] (setting [21]); 1.2 nM in test [3] (setting [18]); 3.8 nM in test [4] (setting [19]). For the same molecule, the IC50 is 7.7 nM in test [4] (IC50 del19/C797S, 100 μM ATP); 0.6 nM in test [5] (setting [20]); greater than 10000 nM in test [5] (IC50 WT, 100 μM ATP).

`C[C@]1(O)CC[C@@H](Nc2cc(Nc3ccnc(-c4cnn(S(=O)(=O)C5CC5)c4)n3)ncc2-c2cnc(OC3COC3)cn2)CC1` [Example 150, (1s,4s)-4-((2-((2-(1-(Cyclopropylsulfonyl)-1H-pyrazol-4-yl)pyrimidin-4-yl)amino)-5-(5-(oxetan-3-yloxy)pyrazin-2-yl)pyridin-4-yl)amino)-1-methylcyclohexan-1-ol]: the IC50 is 0.4 nM in test [1] (setting [7]); 0.1 nM in test [2] (setting [15]); 0.2 nM in test [3] (setting [10]); 0.5 nM in test [4] (setting [12]); 6.2 nM in test [5] (setting [14]).

Turning to `CN(C)c1ccnc(-c2cnc(Nc3ccnc(-c4cnn(S(=O)(=O)C5CC5)c4)n3)cc2N[C@H]2CC[C@@](C)(O)CC2)c1` [Example 167, (1s,4s)-4-((6′-((2-(1-(Cyclopropylsulfonyl)-1H-pyrazol-4-yl)pyrimidin-4-yl)amino)-4-(dimethylamino)-[2,3′-bipyridin]-4′-yl)amino)-1-methylcyclohexan-1-ol], the IC50 is 52.2 nM in test [1] (IC50 L858R/C797S, 100 μM ATP); 3.5 nM in test [2] (setting [21]); 2.7 nM in test [3] (setting [22]); 45.8 nM in test [4] (IC50 del19/C797S, 100 μM ATP); greater than 10000 nM in test [5] (IC50 WT, 100 μM ATP).

As for `C[C@]1(O)CC[C@@H](Nc2cc(Nc3ccnc(-c4cnn(S(=O)(=O)C5CC5)c4)n3)ncc2-c2cc(NCCN3CCOCC3)ccn2)CC1` [Example 279, (1s,4s)-4-((6′-((2-(1-(Cyclopropylsulfonyl)-1H-pyrazol-4-yl)pyrimidin-4-yl)amino)-4 ((2-morpholinoethyl)amino)-[2,3′-bipyridin]-4′-yl)amino)-1-methylcyclohexan-1-ol], the IC50 stood at 0.9 nM in test [1] (setting [16]); 6.6 nM in test [1] (IC50 L858R/C797S, 100 μM ATP); 0.6 nM in test [2] (setting [17]); 2 nM in test [3] (setting [18]); 2.9 nM in test [3] (setting [22]); 1.7 nM in test [4] (setting [19]). The IC50 in test [4] (IC50 del19/C797S, 100 μM ATP) was 5 nM; in test [5] (setting [20]), 11.9 nM; in test [5] (IC50 WT, 100 μM ATP) it was greater than 10000 nM.

`CC(C)N1CCN(Cc2ccc(-c3cnc(Nc4ccnc(-c5cnn(S(=O)(=O)C6CC6)c5)n4)cc3N[C@H]3CC[C@@](C)(O)CC3)nc2)CC1` [Example 34, (1s,4s)-4-((6′-((2-(1-(Cyclopropylsulfonyl)-1H-pyrazol-4-yl)pyrimidin-4-yl)amino)-5-((4-isopropylpiperazin-1-yl)methyl)-[2,3′-bipyridin]-4′-yl)amino)-1-methylcyclohexan-1-ol]: the IC50 in test [1] (setting [6]) is 0.2 nM; in test [1] (setting [7]), 0.1 nM; in test [2] (setting [8]), 0.3 nM; in test [2] (setting [15]), 0.1 nM; in test [3] (setting [9]), 0.6 nM; in test [3] (setting [10]) it was 0.6 nM. Moreover, the IC50 in test [4] (setting [11]) amounted to 0.4 nM; in test [4] (setting [12]), 0.2 nM; in test [5] (setting [13]) it was 61.1 nM; in test [5] (setting [14]), 0.5 nM.

For the molecule `O=S(=O)(C1CC1)n1cc(-c2nccc(Nc3cc(NC4CCC(F)CC4)c(-c4cnc(OC5CCOC5)cn4)cn3)n2)cn1` (stereo not drawn) [Example 152, N^2-(2-(1-(Cyclopropylsulfonyl)-1H-pyrazol-4-yl)pyrimidin-4-yl)-N^4-((1s,4s)-4-fluorocyclohexyl)-5-(5-((tetrahydrofuran-3-yl)oxy)pyrazin-2-yl)pyridine-2,4-diamine], the IC50 in test [1] (setting [16]) was 13.1 nM; in test [2] (setting [17]), 0.1 nM; in test [3] (setting [18]), 0.5 nM; in test [4] (setting [19]), 214 nM; in test [5] (setting [20]), greater than 10000 nM.

As to `CN1CCN(C(=O)c2ccc(-c3cnc(Nc4ccnc(-c5cnn(S(=O)(=O)C6CC6)c5)n4)cc3N[C@H]3CC[C@@H](C(C)(C)O)CC3)nc2)CC1` [Example 203, (6′-((2-(1-(Cyclopropylsulfonyl)-1H-pyrazol-4-yl)pyrimidin-4-yl)amino)-4′-(((1s,4s)-4-(2-hydroxypropan-2-yl)cyclohexyl)amino)-[2,3′-bipyridin]-5-yl)(4-methylpiperazin-1-yl)methanone], the IC50 in test [1] (setting [16]) came out at 0.1 nM; in test [1] (IC50 L858R/C797S, 100 μM ATP), 0.8 nM; in test [2] (setting [17]), 0.2 nM; in test [2] (setting [21]), 0.3 nM; in test [3] (setting [18]) it was 0.4 nM; in test [3] (setting [22]), 0.7 nM. Also, the IC50 in test [4] (setting [19]) amounted to 0.1 nM; in test [4] (IC50 del19/C797S, 100 μM ATP), 0.3 nM; in test [5] (setting [20]) it was 0.3 nM; in test [5] (IC50 WT, 100 μM ATP), 395 nM.

The record behind these values is patent publication US12258328B2, “6-membered heteroaryl-containing aminopyridine compounds as EGFR inhibitors” (YUHAN CORPORATION, priority 2021, dated 2025).
